# Peptide text beside a SMILES is read from it.
# What was measured:
# [1] = system: A. baumannii (ATCC 15308); assay: Minimal inhibitory concentration (MIC), broth microdilution; type: cell-based; details: Mueller Hinton Broth, 5 × 10^5 CFU/mL, 0.04% BSA and 0.002% acetic acid, 20–22 h at 37 °C, duplicate
# Description: (§1) Assays were performed on three Gram-negative bacteria: E. coli (BW25113, Coli Genetic Stock Center), A. baumannii (ATCC 15308, CECT, Valencia, Spain), and Pseudomonas sp. (ATCC15915, CECT). The minimal inhibitory concentration (MIC) of each peptide was determined as described by Wiegand et al.. Peptide stocks in water were added to polypropylene 96-well plates (Greiner, Frickenhausen, Germany) and serially diluted from 100 to 0.2 μM. Fresh bacteria were incubated at 37 °C in Mueller Hinton Broth (MHB, Condalab, Torrejón de Ardoz, Spain) up to exponential growth and diluted to a final inoculum of 5 × 10^5 CFU/mL. BSA and acetic acid at 0.04% (w/v) and 0.002% (v/v) final concentration, respectively, were added to avoid peptide self-aggregation. Plates were incubated for 20–22 h at 37 °C. Each peptide was tested in duplicate. MIC values were the lowest peptide concentration where bacterial growth was not detected.
# [2] = system: Pseudomonas sp. (ATCC15915); assay: as above; type: cell-based; details: Mueller Hinton Broth, 5 × 10^5 CFU/mL, 0.04% BSA and 0.002% acetic acid, 20–22 h at 37 °C, duplicate
# Description: as §1
# [3] = system: BxPC3, A549, Panc1, 786-O, and HT29; assay: Peptide cytotoxicity (Cell Titer Blue viability), non-leukemia cell lines of Figure 2; type: cell-based, Human; details: peptide treatment 24 h, triplicate, read-out: IC50, other cancer cell lines (non-leukemia, other than SH-Sy5Y)
# Excerpt: Human HeLa S3 (cervix epithelial carcinoma), leukemia Jurkat E6.1 (T-cell lineage), U937 (histiocytic lymphoma), THP-1 (acute monocytic leukemia), and 1BR3G human fibroblasts were obtained from the Cell Lines Repository of the Institut Municipal d’Investigació Medica (Barcelona, Spain). BxPC3 (pancreas adenocarcinoma), A549 (lung carcinoma), SH-Sy5Y (neuroblastoma), Panc1 (epithelioid carcinoma), 786-O (renal cell adenocarcinoma), and HT29 (colorectal adenocarcinoma) were obtained from the Integrative Biomedical Materials and Nanomedicine lab at UPF (Barcelona, Spain). HeLa S3, Jurkat E6.1, U937, THP-1, Panc1, and 786-O were cultured in Roswell Park Memorial Institute medium (RPMI) supplemented with 10% fetal bovine serum (FBS) and 1% penicillin/streptomycin solution and maintained at 37 °C in a humidified atmosphere with 5% of CO2. […]
# About 60,000 cells were added to different microfuge tubes containing 2-fold serial dilution of the peptide, with a final concentration in the range between 0.1–100 μM in RPMI containing 2% of FBS. […] Fluorescence was read at 4 and 24 h after dye addition in a Synergy HTX (BioTek, Winooski, VT, USA) reader, with λexc = 560 nm and λem = 620 nm. […] Relative viability was calculated relative to a cell with only 2% FBS in the corresponding medium as a control (100% viability). […]
# [4] = system: THP-1; assay: Peptide cytotoxicity (Cell Titer Blue viability); type: cell-based, Human; details: peptide treatment 24 h, medium with 2% FBS, Cell Titer Blue fluorescence, triplicate
# Excerpt: (§2) Human HeLa S3 (cervix epithelial carcinoma), leukemia Jurkat E6.1 (T-cell lineage), U937 (histiocytic lymphoma), THP-1 (acute monocytic leukemia), and 1BR3G human fibroblasts were obtained from the Cell Lines Repository of the Institut Municipal d’Investigació Medica (Barcelona, Spain). BxPC3 (pancreas adenocarcinoma), A549 (lung carcinoma), SH-Sy5Y (neuroblastoma), Panc1 (epithelioid carcinoma), 786-O (renal cell adenocarcinoma), and HT29 (colorectal adenocarcinoma) were obtained from the Integrative Biomedical Materials and Nanomedicine lab at UPF (Barcelona, Spain). HeLa S3, Jurkat E6.1, U937, THP-1, Panc1, and 786-O were cultured in Roswell Park Memorial Institute medium (RPMI) supplemented with 10% fetal bovine serum (FBS) and 1% penicillin/streptomycin solution and maintained at 37 °C in a humidified atmosphere with 5% of CO2. 1BR3G, BxPC3, A549, and HT29 were cultured in Dulbecco’s Modified Eagle’s Medium (DMEM) supplemented with 10% FBS and 1% penicillin/streptomycin solution and maintained at 37 °C in a humidified atmosphere with 5% of CO2. SH-Sy5Y was cultured in DMEM supplemented with 15% FBS and 1% penicillin/streptomycin and maintained at 37 °C in a humidified atmosphere with 5% of CO2. Cultures were maintained at 10^5–10^6 cell/mL densities. For 1BR3G human fibroblasts, BxPC3, A549, SH-Sy5Y, Panc1, 786-O, and HT29 were split every time they reached 80–90% of confluence after harvesting with PBS and trypsin.
# (§3) About 60,000 cells were added to different microfuge tubes containing 2-fold serial dilution of the peptide, with a final concentration in the range between 0.1–100 μM in RPMI containing 2% of FBS. After 30 min incubation at 37 °C and 5% of CO2, […] of medium containing approximately 10,000 treated cells were transferred to a 96-well plate. Then, 15 μL of Cell Titer Blue dye (Promega, Madison, WI, USA) was added, and plates were reincubated for 24 h. Fluorescence was read at 4 and 24 h after dye addition in a Synergy HTX (BioTek, Winooski, VT, USA) reader, with λexc = 560 nm and λem = 620 nm. In the case of adherent cultures, 5000 cells/well were seeded in 96-well plates. After 24 h incubation at 37 °C and 5% of CO2, the medium was removed, and a new medium with 2% of FBS containing the various 2-fold dilution of the peptides was added. After a further 30 min, 15 μL of Cell Titer Blue dye was added to each well, and the measurement was done as above. Relative viability was calculated relative to a cell with only 2% FBS in the corresponding medium as a control (100% viability). All assays were conducted in triplicate.
# [5] = system: HeLa S3; assay: Peptide cytotoxicity (Cell Titer Blue viability); type: cell-based, Human; details: peptide treatment 24 h, medium with 2% FBS, Cell Titer Blue fluorescence, triplicate
# Excerpt: as §2, §3
# [6] = system: Jurkat E6.1; assay: Peptide cytotoxicity (Cell Titer Blue viability); type: cell-based, Human; details: peptide treatment 24 h, medium with 2% FBS, Cell Titer Blue fluorescence, triplicate
# Excerpt: as §2, §3
# [7] = system: SH-Sy5Y (neuroblastoma); assay: Peptide cytotoxicity (Cell Titer Blue viability); type: cell-based, Human; details: peptide treatment 24 h, medium with 2% FBS, Cell Titer Blue fluorescence, triplicate
# Excerpt: as §2, §3
# [8] = system: U937; assay: Peptide cytotoxicity (Cell Titer Blue viability); type: cell-based, Human; details: peptide treatment 24 h, medium with 2% FBS, Cell Titer Blue fluorescence, triplicate
# Excerpt: as §2, §3
# [9] = system: E. coli (BW25113); assay: Minimal inhibitory concentration (MIC), broth microdilution; type: cell-based; details: Mueller Hinton Broth, 5 × 10^5 CFU/mL, 0.04% BSA and 0.002% acetic acid, 20–22 h at 37 °C, duplicate
# Description: as §1
# [10] = system: 1BR3G human fibroblasts; assay: Peptide cytotoxicity (Cell Titer Blue viability); type: cell-based; details: 24 h treatment, medium with 2% FBS, Cell Titer Blue fluorescence, triplicate
# Excerpt: as §2, §3
# [11] = system: human erythrocytes; assay: Hemolytic activity; type: cell-based; details: up to 100 μM; 4% (v/v) human erythrocytes in PBS, 30 min at 37 °C, OD 540 nm, triplicate
# Description: Fresh human blood (10 mL) was collected in EDTA tubes and centrifuged at 1000× g for 10 min at 4 °C. After plasma removal, the pellet containing the erythrocytes was washed 3× with phosphate-buffered saline (PBS) and resuspended to an 8% (v/v) suspension in PBS. Then, 100 μL of the suspension was added to a final concentration of 4% (v/v) to microfuge tubs containing 2-fold serially diluted peptides (0.2–100 μM). The suspension was incubated for 30 min at 37 °C with agitation, then centrifuged for 2 min at 1000× g. The supernatant was transferred to 96-well plates, and hemoglobin was measured by OD at 540 nm in a Synergy HTX plate reader (BioTek). Positive and negative controls were 1% (v/v) Triton X-100 and untreated erythrocytes (4% v/v in PBS), respectively. Measurements were done in triplicate. Hemolysis was calculated as:(2) % Hemolysis=[OD540peptide]−[OD540PBS]/[OD540Triton]−[OD540PBS]·100
SMILES,MIC A. baumannii [1] [µM],MIC Pseudomonas sp. [2] [µM],IC50 [3] [nM],IC50 [4] [nM],IC50 [5] [nM],IC50 [6] [nM],IC50 [7] [nM],IC50 [8] [nM],MIC E. coli [9] [µM],IC50 (cell viability) human fibroblast 1BR3G [10],Hemolytic effect (in words) [11]
CC[C@H](C)[C@H](NC(=O)[C@H](CCCCN)NC(=O)[C@H](CCCCN)NC(=O)[C@H](CC(C)C)NC(=O)[C@H](CCCNC(=N)N)NC(=O)[C@H](CCCCN)NC(=O)[C@H](CCCCN)NC(=O)[C@@H](NC(=O)[C@H](CO)NC(=O)[C@H](CCCCN)NC(=O)[C@H](CCCCN)NC(=O)[C@@H](NC(=O)[C@H](CCCCN)NC(=O)[C@H](CCCCN)NC(=O)[C@H](Cc1ccccc1)NC(=O)[C@H](Cc1ccccc1)NC(=O)[C@H](CCCCN)NC(=O)[C@H](CCCCN)NC(=O)[C@H](Cc1ccccc1)NC(=O)[C@H](CCCNC(=N)N)NC(=O)[C@@H](N)CCCCN)C(C)C)C(C)C)C(=O)N[C@@H](Cc1ccccc1)C(=O)N[C@@H](CCCCN)C(=O)N[C@@H](CCCCN)C(=O)N1CCC[C@H]1C(=O)N[C@@H](CCSC)C(=O)N[C@H](C(=O)N[C@H](C(=O)NCC(=O)N[C@H](C(=O)N[C@H](C(=O)N[C@H](C(=O)N1CCC[C@H]1C(=O)N[C@@H](Cc1ccccc1)C(N)=O)[C@@H](C)CC)[C@@H](C)O)C(C)C)[C@@H](C)CC)C(C)C [Ctn] (H-KRFKKFFKKVKKSVKKRLKKIFKKPMVIGVTIPF-NH2),0.78,<0.05,≥ 10000,< 1000,~3470,< 1000,~2610,< 1000,–,–,–
CC[C@H](C)[C@H](NC(=O)[C@H](CCCCN)NC(=O)[C@H](CCCCN)NC(=O)[C@H](CC(C)C)NC(=O)[C@H](CCCNC(=N)N)NC(=O)[C@H](CCCCN)NC(=O)[C@@H](N)CCCCN)C(=O)N[C@@H](Cc1ccccc1)C(=O)N[C@@H](CCCCN)C(=O)N[C@@H](CCCCN)C(=O)N1CCC[C@H]1C(=O)N[C@@H](CCSC)C(=O)N[C@H](C(=O)N[C@H](C(=O)NCC(=O)N[C@H](C(=O)N[C@H](C(=O)N[C@H](C(=O)N1CCC[C@H]1C(=O)N[C@@H](Cc1ccccc1)C(N)=O)[C@@H](C)CC)[C@@H](C)O)C(C)C)[C@@H](C)CC)C(C)C [Ctn[15-34]] (H-KKRLKKIFKKPMVIGVTIPF-NH2),0.78,<0.05,–,–,–,–,–,–,<0.005,≈ 14.32 μM,totally nonhemolytic
